We go through one compound from US20240252514A1, “NEUROACTIVE STEROID FOR THE TREATMENT OF MILD COGNITIVE IMPAIRMENT ASSOCIATED WITH PARKINSON'S DISEASE” (SAGE THERAPEUTICS, INC., priority 2021, published 2024).

“Also recorded” adds a separate entry of the source.

What all share (assay type): in vivo, human
Data set [1] concerns patients suffering from Mild Cognitive Impairment due to Parkinson's Disease (PD-MCI). The data set can be described thus: Tests of Attention and Psychomotor Performance (RTI, PVT), open label study. As for the experimental part:
(§1) The safety and tolerability of Compound 1 and its effects on cognitive, neuropsychiatric, and motor symptoms in patients suffering from Mild Cognitive Impairment due to Parkinson's Disease (PD-MCI) was evaluated in an open label study. Eligible participants with a confirmed diagnosis of idiopathic PD by 2015 Movement Disorder Society (MDS) criteria (Berardelli et al., EFNS/MDS-ES/ENS recommendations for the diagnosis of Parkinson's disease. Eur J Neurol. 2013; 20:16-34) at Screening and who met MDS Task Force Criteria for MCI in PD (excluding requirement for UK PD Brain Bank diagnostic criteria) received 3.0 mg of Compound 1 (oral dose) daily for 14 days. Participants were instructed to take the daily dose of Compound 1 in the morning within 1 hour of initiating a meal containing approximately 30 g of fat. The study protocol was as follows and is depicted in FIG. 1.
(§2) Beginning on Day 1 and continuing through Day 14, participants self-administered 3.0 mg Compound 1 (as six 0.5-mg oral tablets), once per day in the morning within 1 hour after initiating a meal containing approximately 30 g of fat, in accordance with the guidelines provided in a nutritional information brochure. Participants continued to complete daily assessments of cognitive performance and sleep via mobile device either remotely (at home), or in the clinic at scheduled visits and tracked Compound 1 dosing and predose food intake in a participant diary.
(§3) Eight patients (male and female) aged 50 to 75 years old with mild cognitive impairment due to Parkinson's disease received 3 mg as oral tablets of Compound 1 daily for 2-weeks.
The tests of Attention and Psychomotor Performance included Reaction Time (RTI), which assesses how fast the subject can respond to a stimulus (weekly measure); Psychomotor Vigilance Task (PVT), which assesses how fast can the subject respond to a stimulus (daily measure).

The test system is the same in data set [2]. The data set can be described thus: Safety and tolerability (adverse events), open label study. The note with it: 3 mg oral daily for 14 days, follow-up to Day 28. As for the experimental part:
as §1
At scheduled visits during the Treatment Period, participants completed the mobile device tasks under staff supervision. At scheduled clinic visits during the Treatment Period, safety, efficacy, and PK procedures were performed. In addition to weekly clinic visits, study staff contacted participants by telephone on Day 4 to document any TEAEs and/or changes in concomitant medications.
Participants were contacted by telephone on Day 21 to document any AEs and/or changes in concomitant medications. Participants returned to the clinic on Day 28 (±2 days) for a follow-up visit.
The Primary objective of the study was to assess (1) the percentage of Participants With at Least One Treatment-Emergent Adverse Event (TEAE) (Time Frame: Up to Day 28).

The test system is the same in data set [3]. The data set can be described thus: Tests of Executive Functioning (MTT, OTS, SWM, DSST, 2-Back), open label study. As for the experimental part: as §1, §2, §3
The tests of Executive Functioning included (1) Multitasking Test (MTT), which assesses how well the subject manages conflicting information; (2) One Touch Stockings of Cambridge (OTS), which assesses how well the subject plans, holds onto, and manipulates information to solve a puzzle; (3) Spatial Working Memory (SWM), which assesses how well the subject develops and uses a strategy to find hidden information; (4) Digit Symbol Substitution Task (DSST), which assesses how efficiently can the subject complete a demanding task (daily measure); and (5) Two-Back Test (NBX), which asks is the symbol the same as that shown two symbols ago.

The test system is the same in data set [4]. The data set can be described thus: Tests of Social Cognition (ERT, EBT), open label study. The note with it: 3 mg oral daily for 14 days, vs baseline, Clinic/Weekly. How it is done:
as §1
Beginning on Day 1 and continuing through Day 14, participants self-administered 3.0 mg Compound 1 (as six 0.5-mg oral tablets), once per day in the morning within 1 hour after initiating a meal containing approximately 30 g of fat, in accordance with the guidelines provided in a nutritional information brochure. […]

Data set [5] shares this test system. The data set can be described thus: Tests of Learning and Memory (PAL, PRM, Verbal Recognition Memory, Spatial Span), open label study. As for the experimental part: as §1, §2, §3
The tests of Learning and Memory included Paired Associates Learning (PAL), which assesses how well the subject remembers the location of hidden objects; Pattern Recognition Memory (PRM), which assesses how well the subject remembers a pattern; and Verbal Recognition Memory […], which assesses how well the subject stores and retrieves verbal information.

The mark [6] stands for this setting: 3 mg oral daily for 14 days, vs baseline, Clinic/Weekly.
Setting [7] is: PD-MCI patients, 3 mg oral daily for 14 days, vs baseline, Clinic/Weekly.

Take `C[C@H](CC[C@](C)(O)C(F)(F)F)[C@H]1CC[C@H]2[C@@H]3CC=C4C[C@@](C)(O)CC[C@]4(C)[C@H]3CC[C@]12C` [Compound 1]: in data set [1] (setting [6]), the “Trend, Attention & Psychomotor Speed: Reaction Time” value is “Neutral”. Besides, the “Trend, Attention & Psychomotor Speed: Psychomotor Vigilance” value in data set [1] (3 mg oral daily for 14 days, vs baseline, Mobile/Daily) is listed as “Neutral”. Besides, the “Performance in tests of attention and psychomotor speed (overall)” value in data set [1] (3 mg oral daily, 14 days (FIG. 6)) is reported as “neutral results; also recorded: no appreciable change”. In addition, in data set [2], the Serious adverse events entry is given as “no serious adverse events”, the Tolerability result was “generally well tolerated” and the “Treatment emergent adverse events related to the compound” value was “no treatment emergent adverse events were determined to be related to Compound 1”. Also, in data set [3] (setting [7]), the “Trend, Executive Functioning: 2-Back” value is “Improvement”; the “Trend, Executive Functioning: Multitasking” value is reported as “Improvement”; the “Trend, Executive Functioning: One Touch Stockings” value is listed as “Improvement”; the “Trend, Executive Functioning: Spatial working Memory” value is recorded as “Improvement”. The “Trend, Executive Functioning: DSST” value in data set [3] (PD-MCI patients, 3 mg oral daily for 14 days, vs baseline, Mobile/Daily) is reported as “Improvement”. In addition, in data set [3] (PD-MCI patients, 3 mg oral daily, during 14 days of treatment, vs baseline (FIGS. 2-3)), the “Performance in the cognitive domain of executive function (five tests, overall)” value was “performance improvements from baseline; also recorded: improved performance”. In addition, the “DSST improvement over baseline” value in data set [3] (PD-MCI subjects, 3 mg oral daily, Treatment Day 14 (FIG. 3)) was roughly 27%. Further, in data set [4], the “Trend, Social Cognition: Emotional Bias” value is listed as “Improvement” and the “Trend, Social Cognition: Emotional Recognition” value is given as “Neutral”. In data set [5] (setting [6]), the “Trend, Learning and Memory: Paired Associates” value was “Improvement”; the “Trend, Learning and Memory: Pattern recognition” value was “Improvement”; the “Trend, Learning and Memory: Spatial Span” value was “Neutral”; the “Trend, Learning and Memory: Verbal Memory” value is “Improvement”. The “Performance in the domains of learning and memory (overall)” value in data set [5] (3 mg oral daily, 14 days, vs baseline (FIGS. 4 and 5)) is “improved performance from baseline”.
